Data published in the NIST ThermoML archive (doi:10.1021/je060271a).
Several values for one entry are separate records, joined by “and”; a condition that tells them apart may be missing. Identical values can stand only once.

Conditions: Liquid, Vibrating tube method

CCCCCC(=O)OCC(COC(=O)CCCCC)(COC(=O)CCCCC)COC(=O)CCCCC [pentaerythritol tetrahexanoate]
Conditions	mass density
283.14 K, 6785.3 kPa	1008.1 kg/m3
283.14 K, 6787.6 kPa	1008 kg/m3 and 1008.2 kg/m3
283.14 K, 6787.7 kPa	1008.1 kg/m3
283.14 K, 6787.9 kPa	1008.1 kg/m3 and 1008 kg/m3
283.14 K, 30862 kPa	1021 kg/m3
283.14 K, 30898 kPa	1021 kg/m3
283.14 K, 30915 kPa	1021 kg/m3
283.14 K, 32175 kPa	1021.8 kg/m3
283.14 K, 32194 kPa	1021.7 kg/m3
283.14 K, 32218 kPa	1021.7 kg/m3
283.14 K, 32238 kPa	1021.8 kg/m3
283.14 K, 32258 kPa	1021.8 kg/m3
283.14 K, 32282 kPa	1021.8 kg/m3
283.14 K, 32303 kPa	1021.7 kg/m3
283.14 K, 32324 kPa	1021.8 kg/m3
283.15 K, 90.7 kPa	1004 kg/m3
283.15 K, 90.8 kPa	1004.1 kg/m3
283.15 K, 90.9 kPa	1004.2 kg/m3
283.15 K, 96 kPa	1004.2 kg/m3
283.15 K, 96.1 kPa	1004.2 kg/m3
283.15 K, 96.4 kPa	1004.1 kg/m3 and 1004.2 kg/m3
283.15 K, 96.6 kPa	1004.2 kg/m3
283.15 K, 96.7 kPa	1004.2 kg/m3
283.15 K, 96.9 kPa	1004.2 kg/m3
283.15 K, 97.3 kPa	1004.1 kg/m3
283.15 K, 97.4 kPa	1004.1 kg/m3 and 1004.2 kg/m3
283.15 K, 97.6 kPa	1004 kg/m3 and 1004.2 kg/m3
283.15 K, 99.3 kPa	1004.2 kg/m3
283.15 K, 101.4 kPa	1004.2 kg/m3
283.15 K, 101.6 kPa	1004.2 kg/m3
283.15 K, 102.1 kPa	1004.2 kg/m3
283.15 K, 102.2 kPa	1004.1 kg/m3 and 1004.2 kg/m3
283.15 K, 106.2 kPa	1004.2 kg/m3
283.15 K, 106.9 kPa	1004.1 kg/m3
283.15 K, 107 kPa	1004.2 kg/m3
283.15 K, 107.4 kPa	1004 kg/m3
283.15 K, 107.5 kPa	1004.1 kg/m3
283.15 K, 107.7 kPa	1004.2 kg/m3
283.15 K, 107.9 kPa	1004.2 kg/m3 and 1004.3 kg/m3
283.15 K, 111.3 kPa	1004.1 kg/m3
283.15 K, 111.5 kPa	1004.2 kg/m3
283.15 K, 111.7 kPa	1004.3 kg/m3
283.15 K, 112 kPa	1004.2 kg/m3
283.15 K, 112.3 kPa	1004.1 kg/m3
283.15 K, 112.4 kPa	1004.2 kg/m3
283.15 K, 112.5 kPa	1004.1 kg/m3
283.15 K, 112.7 kPa	1004.2 kg/m3 and 1004.1 kg/m3
283.15 K, 113 kPa	1004.1 kg/m3 and 1004.2 kg/m3
283.15 K, 113.2 kPa	1004.3 kg/m3 and 1004.1 kg/m3
283.15 K, 113.4 kPa	1004.2 kg/m3
283.15 K, 113.5 kPa	1004.1 kg/m3
283.15 K, 113.9 kPa	1004.2 kg/m3
283.15 K, 114.1 kPa	1004.2 kg/m3
283.15 K, 114.4 kPa	1004.1 kg/m3
283.15 K, 114.6 kPa	1004.1 kg/m3
283.15 K, 114.8 kPa	1004.3 kg/m3
283.15 K, 114.9 kPa	1004.2 kg/m3 and 1004.1 kg/m3
283.15 K, 115.1 kPa	1004.2 kg/m3
283.15 K, 115.4 kPa	1004.2 kg/m3
283.15 K, 115.5 kPa	1004.2 kg/m3
283.15 K, 115.8 kPa	1004.2 kg/m3
283.15 K, 116 kPa	1004.2 kg/m3
283.15 K, 116.3 kPa	1004.2 kg/m3
283.15 K, 116.5 kPa	1004.1 kg/m3
283.15 K, 116.7 kPa	1004.2 kg/m3
283.15 K, 116.8 kPa	1004.2 kg/m3
283.15 K, 117.2 kPa	1004.1 kg/m3
283.15 K, 117.3 kPa	1004.2 kg/m3 and 1004.3 kg/m3
283.15 K, 117.5 kPa	1004.2 kg/m3
283.15 K, 117.9 kPa	1004.2 kg/m3 and 1004.3 kg/m3
283.15 K, 118 kPa	1004.1 kg/m3
283.15 K, 118.2 kPa	1004.2 kg/m3
283.15 K, 118.4 kPa	1004.2 kg/m3
283.15 K, 118.7 kPa	1004.2 kg/m3
283.15 K, 118.9 kPa	1004.2 kg/m3
283.15 K, 119.1 kPa	1004.4 kg/m3 and 1004.2 kg/m3
283.15 K, 119.3 kPa	1004 kg/m3
283.15 K, 119.6 kPa	1004.2 kg/m3
283.15 K, 119.8 kPa	1004.1 kg/m3
283.15 K, 119.9 kPa	1004.3 kg/m3 and 1004.2 kg/m3
283.15 K, 120.1 kPa	1004.1 kg/m3
283.15 K, 121.3 kPa	1004.2 kg/m3
283.15 K, 121.7 kPa	1004.2 kg/m3 and 1004.1 kg/m3
283.15 K, 122 kPa	1004.3 kg/m3
283.15 K, 122.4 kPa	1004.1 kg/m3
283.15 K, 122.5 kPa	1004.3 kg/m3
283.15 K, 122.9 kPa	1004.1 kg/m3
283.15 K, 123 kPa	1004.2 kg/m3
283.15 K, 123.2 kPa	1004.2 kg/m3
283.15 K, 123.6 kPa	1004.3 kg/m3 and 1004.2 kg/m3
283.15 K, 123.7 kPa	1004.1 kg/m3
283.15 K, 123.9 kPa	1004.2 kg/m3 and 1004.1 kg/m3
283.15 K, 124.3 kPa	1004.2 kg/m3
283.15 K, 124.6 kPa	1004 kg/m3
283.15 K, 124.9 kPa	1004.1 kg/m3
283.15 K, 125 kPa	1004.2 kg/m3
283.15 K, 125.1 kPa	1004.1 kg/m3
283.15 K, 125.3 kPa	1004.2 kg/m3
283.15 K, 125.8 kPa	1004 kg/m3
283.15 K, 126 kPa	1004.3 kg/m3
283.15 K, 126.2 kPa	1004.2 kg/m3 and 1004.1 kg/m3
283.15 K, 127.9 kPa	1004.2 kg/m3
283.15 K, 128.1 kPa	1004.3 kg/m3
283.15 K, 128.4 kPa	1004.3 kg/m3
283.15 K, 134 kPa	1004.1 kg/m3
283.15 K, 134.1 kPa	1004.2 kg/m3
283.15 K, 134.3 kPa	1004.1 kg/m3
283.15 K, 134.5 kPa	1004.3 kg/m3
283.15 K, 135 kPa	1004.2 kg/m3
283.15 K, 135.2 kPa	1004.2 kg/m3
283.15 K, 135.3 kPa	1004.1 kg/m3
283.15 K, 136 kPa	1004.2 kg/m3
283.15 K, 136.4 kPa	1004.2 kg/m3
283.15 K, 136.6 kPa	1004.2 kg/m3 and 1004.1 kg/m3
283.15 K, 136.7 kPa	1004.3 kg/m3
283.15 K, 136.9 kPa	1004.1 kg/m3
283.15 K, 137.4 kPa	1004.2 kg/m3
283.15 K, 137.6 kPa	1004.3 kg/m3 and 1004.2 kg/m3
283.15 K, 137.9 kPa	1004.3 kg/m3
283.15 K, 138.1 kPa	1004.2 kg/m3
283.15 K, 138.8 kPa	1004.2 kg/m3
283.15 K, 139 kPa	1004.1 kg/m3 and 1004.3 kg/m3
283.15 K, 139.2 kPa	1004.3 kg/m3 and 1004.2 kg/m3
283.15 K, 139.3 kPa	1004.2 kg/m3
283.15 K, 139.7 kPa	1004.2 kg/m3 and 1004.1 kg/m3 and 1004.3 kg/m3
283.15 K, 140.4 kPa	1004.3 kg/m3
283.15 K, 140.6 kPa	1004.3 kg/m3
283.15 K, 140.7 kPa	1004.2 kg/m3
283.15 K, 141.1 kPa	1004.2 kg/m3
283.15 K, 141.4 kPa	1004.2 kg/m3
283.15 K, 141.6 kPa	1004.2 kg/m3
283.15 K, 142.1 kPa	1004.3 kg/m3
283.15 K, 142.5 kPa	1004.2 kg/m3
283.15 K, 143 kPa	1004.2 kg/m3 and 1004.1 kg/m3
283.15 K, 143.2 kPa	1004.2 kg/m3
283.15 K, 144 kPa	1004.2 kg/m3 and 1004.1 kg/m3
283.15 K, 144.2 kPa	1004.3 kg/m3
283.15 K, 144.4 kPa	1004.1 kg/m3
283.15 K, 144.7 kPa	1004.1 kg/m3
283.15 K, 145.4 kPa	1004.2 kg/m3
283.15 K, 145.9 kPa	1004.3 kg/m3
283.15 K, 146.3 kPa	1004.2 kg/m3
283.15 K, 146.6 kPa	1004.2 kg/m3
283.15 K, 147.3 kPa	1004.2 kg/m3
